Source: patent US9540343B2 (Gilead Sciences, Inc., priority 2011, dated 2017)

Experiments:
HIV-IIIb = assay: Test A: Antiviral assay in MT4 cells; type: cell-based, HIV-1; details: MT-4 cells infected with HIV-IIIb, 5 days, CellTiter-Glo; for inhibition at 2 µM: Human immunodeficiency virus 1, IIIB, MT4, 120 h, read-out: % inhibition at 2 μM, percent inhibition of virus-induced cell killing, from dose response curve at 2 uM drug
in vitro = details: human, uninfected MT-4 cells, CC50 (nM), same protocol as Test A, CellTiter-Glo
In short: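 Cytoprotection read-out: CellTiter-Glo chemiluminescence after 5 days at 37 °C of HIV-IIIb-infected MT-4 cells (m.o.i. 0.003) with compound in 10-point 3-fold dilutions, quadruplicate, 10% FBS. Cytotoxicity (CC50) measured identically without virus.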

`O=C(Cn1nc(C(F)F)cc1C(F)F)N[C@@H](Cc1cc(F)cc(F)c1)c1ncccc1-c1ccc(S(=O)(=O)N2CCOCC2)cc1` [Example 539, (S)-2-(3,5-bis(difluoromethyl)-1H-pyrazol-1-yl)-N-(2-(3,5-difluorophenyl)-1-(3-(4-(morpholinosulfonyl)phenyl)pyridin-2-yl)ethyl)acetamide] showed an inhibition at 2 µM (HIV-IIIb) of 10% and a CC50 at 5 days (in vitro) of 20800 nM.

For `CC(C)(C)OC(=O)N1C[C@H](O)C[C@H]1C(=O)N[C@@H](Cc1cc(F)cc(F)c1)c1ncccc1-c1ccc(F)c(C(N)=O)c1` [Example 132, (2S,4R)-tert-butyl 2-((S)-1-(3-(3-carbamoyl-4-fluorophenyl)pyridin-2-yl)-2-(3,5-difluorophenyl)ethylcarbamoyl)-4-hydroxypyrrolidine-1-carboxylate], the inhibition at 2 µM (HIV-IIIb) was 7% and the CC50 at 5 days (in vitro) was 22300 nM.

For `COc1ccc2cc(-c3cccnc3[C@H](Cc3cc(F)cc(F)c3)NC(=O)Cc3c[nH]c4ccc(F)cc34)ccc2c1` [Example 435, (S)—N-(2-(3,5-difluorophenyl)-1-(3-(6-methoxynaphthalen-2-yl)pyridin-2-yl)ethyl)-2-(5-fluoro-1H-indol-3-yl)acetamide], the inhibition at 2 µM (HIV-IIIb) was 7% and the CC50 at 5 days (in vitro) was 13900 nM.

For `NC(=O)c1cc(-c2cccnc2[C@H](Cc2cc(F)cc(F)c2)NC(=O)Cn2cc(C(F)F)c(C(F)(F)F)n2)ccc1F` [Example 350, (S)-5-(2-(1-(2-(4-(difluoromethyl)-3-(trifluoromethyl)-1H-pyrazol-1-yl)acetamido)-2-(3,5-difluorophenyl)ethyl)pyridin-3-yl)-2-fluorobenzamide], the inhibition at 2 µM (HIV-IIIb) was 10% and the CC50 at 5 days (in vitro) was 28100 nM.

For `NC(=O)c1cc(-c2cccnc2[C@H](Cc2cc(F)cc(F)c2)NC(=O)[C@@H]2CC(=O)CN2)ccc1F` [Example 167, (S)—N—((S)-1-(3-(3-carbamoyl-4-fluorophenyl)pyridin-2-yl)-2-(3,5-difluorophenyl)ethyl)-4-oxopyrrolidine-2-carboxamide], the inhibition at 2 µM (HIV-IIIb) was 0% and the CC50 at 5 days (in vitro) was greater than 53000 nM.

`O=C(Cn1nc(C(F)F)c2c1C(F)(F)C1CC21)N[C@@H](Cc1cc(F)cc(F)c1)c1ncccc1-c1ccc(OC(F)(F)F)cc1` (stereo partly drawn) [Example 230, 2-(3-(difluoromethyl)-5,5-difluoro-3b,4,4a,5-tetrahydro-1H-cyclopropa[3,4]cyclopenta[1,2-c]pyrazol-1-yl)-N—((S)-2-(3,5-difluorophenyl)-1-(3-(4-(trifluoromethoxy)phenyl)pyridin-2-yl)ethyl)acetamide] gave an inhibition at 2 µM (HIV-IIIb) of 66% and a CC50 at 5 days (in vitro) of 14000 nM.

`Cc1ccccc1-c1cccnc1[C@@H](Cc1ccccc1)NC(=O)Cc1c[nH]c2ccc(O)cc12` [Example 15, (R)-2-(5-hydroxy-1H-indol-3-yl)-N-(2-phenyl-1-(3-o-tolylpyridin-2-yl)ethyl)acetamide] showed an inhibition at 2 µM (HIV-IIIb) of 0% and a CC50 at 5 days (in vitro) of 28200 nM.

Compound `NC(=O)c1cccc(-c2cccnc2[C@H](Cc2cc(F)cc(F)c2)NC(=O)C2CC23C(=O)Nc2ccccc23)c1` (stereo partly drawn) [Example 225, N—((S)-1-(3-(3-carbamoylphenyl)pyridin-2-yl)-2-(3,5-difluorophenyl)ethyl)-2′-oxospiro[cyclopropane-1,3′-indoline]-2-carboxamide] has an inhibition at 2 µM (HIV-IIIb) of 15% and a CC50 at 5 days (in vitro) of 23000 nM.

Work on `NC(=O)c1cc(-c2cccnc2[C@H](Cc2cc(F)cc(F)c2)NC(=O)Cn2cc(CN3CCOCC3)c(C(F)(F)F)n2)ccc1F` [Example 305, (S)-5-(2-(2-(3,5-difluorophenyl)-1-(2-(4-(morpholinomethyl)-3-(trifluoromethyl)-1H-pyrazol-1-yl)acetamido)ethyl)pyridin-3-yl)-2-fluorobenzamide] yielded an inhibition at 2 µM (HIV-IIIb) of 0% and a CC50 at 5 days (in vitro) greater than 53200 nM.

Work on `NC(=O)c1cccc(-c2cccnc2[C@H](Cc2cc(F)cc(F)c2)NC(=O)Cc2c[nH]c3ccc(C(F)(F)F)cc23)c1` [Example 596, (S)-3-(2-(2-(3,5-difluorophenyl)-1-(2-(5-(trifluoromethyl)-1H-indol-3-yl)acetamido)ethyl)pyridin-3-yl)benzamide] yielded an inhibition at 2 µM (HIV-IIIb) of 96% and a CC50 at 5 days (in vitro) of 10900 nM.

`NC(=O)c1cc(-c2cccnc2[C@H](Cc2cc(F)cc(F)c2)NC(=O)Cn2nc(C(F)F)c3c2C(F)(F)CCC3)ccc1F` [Example 380, (S)-5-(2-(1-(2-(3-(difluoromethyl)-7,7-difluoro-4,5,6,7-tetrahydro-1H-indazol-1-yl)acetamido)-2-(3,5-difluorophenyl)ethyl)pyridin-3-yl)-2-fluorobenzamide] showed an inhibition at 2 µM (HIV-IIIb) of 97% and a CC50 at 5 days (in vitro) of 18300 nM.

`O=C(Cc1c[nH]c2ccc(F)cc12)N[C@@H](Cc1cc(F)cc(F)c1)c1ncccc1-c1ccc(S(=O)(=O)N2CCOCC2)cc1` [Example 82, (S)—N-(2-(3,5-difluorophenyl)-1-(3-(4-(morpholinosulfonyl)phenyl)pyridin-2-yl)ethyl)-2-(5-fluoro-1H-indol-3-yl)acetamide] showed an inhibition at 2 µM (HIV-IIIb) of 114% and a CC50 at 5 days (in vitro) of 19300 nM.

Work on `COc1ccc(-c2cccnc2[C@H](Cc2ccccc2)NC(=O)Cn2nc(C(F)(F)F)c3c2CCCC3)c(C)c1` [Example 19, (S)—N-(1-(3-(4-methoxy-2-methylphenyl)pyridin-2-yl)-2-phenylethyl)-2-(3-(trifluoromethyl)-4,5,6,7-tetrahydro-1H-indazol-1-yl)acetamide] yielded an inhibition at 2 µM (HIV-IIIb) of 25% and a CC50 at 5 days (in vitro) of 14200 nM.

`N#Cc1nn(CC(=O)N[C@@H](Cc2cc(F)cc(F)c2)c2ncccc2-c2ccc(F)c(C(N)=O)c2)c2c1C1CC1C2(F)F` (stereo partly drawn) [Example 254, 5-(2-((1S)-1-(2-(3-cyano-5,5-difluoro-3b,4,4a,5-tetrahydro-1H-cyclopropa[3,4]cyclopenta[1,2-c]pyrazol-1-yl)acetamido)-2-(3,5-difluorophenyl)ethyl)pyridin-3-yl)-2-fluorobenzamide] showed an inhibition at 2 µM (HIV-IIIb) of 91% and a CC50 at 5 days (in vitro) of 16600 nM.

Work on `Cc1cc(=O)n(CC(=O)N[C@@H](Cc2cc(F)cc(F)c2)c2ncccc2-c2cccc(S(N)(=O)=O)c2)c2ccccc12` [Example 345, (S)—N-(2-(3,5-difluorophenyl)-1-(3-(3-sulfamoylphenyl)pyridin-2-yl)ethyl)-2-(4-methyl-2-oxoquinolin-1(2H)-yl)acetamide] yielded an inhibition at 2 µM (HIV-IIIb) of 21% and a CC50 at 5 days (in vitro) of 12400 nM.

For `O=C(Cn1nc(C(F)F)c2c1C1CC1CC2)NC(Cc1cc(F)cc(F)c1)c1ncncc1-c1cnc2[nH]ccc2c1` (single isomer, unassigned) [Example 329], the “% inhibition at 2 μM” value (HIV-IIIb; percent inhibition of virus-induced cell killing, from dose response curve at 2 uM drug) was 99% and the CC50 at 5 days (in vitro) was 14700 nM.

Work on `CCOC(=O)N1CCCC1C(=O)N[C@@H](Cc1cc(F)cc(F)c1)c1ncccc1-c1ccc(F)c(C(N)=O)c1` (stereo partly drawn) [Example 128, ethyl 2-((S)-1-(3-(3-carbamoyl-4-fluorophenyl)pyridin-2-yl)-2-(3,5-difluorophenyl)ethylcarbamoyl)pyrrolidine-1-carboxylate] yielded an inhibition at 2 µM (HIV-IIIb) of 7% and a CC50 at 5 days (in vitro) of 23500 nM.

`NC(=O)c1cc(-c2cncnc2[C@H](Cc2cc(F)cc(F)c2)NC(=O)Cn2nc(C(F)(F)F)c3c2CC2CC32)ccc1F` (stereo partly drawn) [Example 136D, 5-(4-((1S)-2-(3,5-difluorophenyl)-1-(2-(3-(trifluoromethyl)-3b,4,4a,5-tetrahydro-1H-cyclopropa[3,4]cyclopenta[1,2-c]pyrazol-1-yl)acetamido)ethyl)pyrimidin-5-yl)-2-fluorobenzamide] gave an inhibition at 2 µM (HIV-IIIb) of 88% and a CC50 at 5 days (in vitro) of 27800 nM.

With `NC(=O)c1cc(-c2cccnc2[C@H](Cc2cc(F)cc(F)c2)NC(=O)Cn2nc(C(F)(F)F)c3c2CC2C3C2(F)F)ccc1F` (stereo partly drawn) [Example 199E, 5-(2-((1S)-1-(2-(4,4-difluoro-3-(trifluoromethyl)-3b,4,4a,5-tetrahydro-1H-cyclopropa[3,4]cyclopenta[1,2-c]pyrazol-1-yl)acetamido)-2-(3,5-difluorophenyl)ethyl)pyridin-3-yl)-2-fluorobenzamide] the inhibition at 2 µM (HIV-IIIb) was 18% and the CC50 at 5 days (in vitro) was 9520 nM.

In the case of `NC(=O)c1cc(-c2cccnc2[C@H](Cc2cc(F)cc(F)c2)NC(=O)Cn2nc(C(F)F)c3c2C2CC2CC3(F)F)ccc1F` (stereo partly drawn) [Example 304C, 5-(2-((1S)-1-(2-(3-(difluoromethyl)-4,4-difluoro-5,5a,6,6a-tetrahydrocyclopropa[g]indazol-1(4H)-yl)acetamido)-2-(3,5-difluorophenyl)ethyl)pyridin-3-yl)-2-fluorobenzamide], the inhibition at 2 µM (HIV-IIIb) is reported as 94% and the CC50 at 5 days (in vitro) is reported as 1700 nM.

`NC(=O)c1cc(-c2cccnc2[C@H](Cc2cc(F)cc(F)c2)NC(=O)Cc2c[nH]c3c(F)cc(F)cc23)ccc1F` [Example 530E, (S)-5-(2-(1-(2-(5,7-difluoro-1H-indol-3-yl)acetamido)-2-(3,5-difluorophenyl)ethyl)pyridin-3-yl)-2-fluorobenzamide] showed an inhibition at 2 µM (HIV-IIIb) of 55% and a CC50 at 5 days (in vitro) of 15300 nM.

`NC(=O)c1cccc(-c2cccnc2[C@H](Cc2cc(F)cc(F)c2)NC(=O)Cn2cnc3c2CCCC3)c1` [Example 382, (S)-3-(2-(2-(3,5-difluorophenyl)-1-(2-(4,5,6,7-tetrahydro-1H-benzo[d]imidazol-1-yl)acetamido)ethyl)pyridin-3-yl)benzamide] showed an inhibition at 2 µM (HIV-IIIb) of 85% and a CC50 at 5 days (in vitro) greater than 39900 nM.

Compound `NC(=O)c1cc(-c2cccnc2[C@H](Cc2cc(F)cc(F)c2)NC(=O)Cn2cnc3c(Cl)nccc32)ccc1F` [Example 368, (S)-5-(2-(1-(2-(4-chloro-1H-imidazo[4,5-c]pyridin-1-yl)acetamido)-2-(3,5-difluorophenyl)ethyl)pyridin-3-yl)-2-fluorobenzamide] has an inhibition at 2 µM (HIV-IIIb) of 2% and a CC50 at 5 days (in vitro) of 47300 nM.

Work on `NC(=O)c1cc(-c2cccnc2[C@H](Cc2cc(F)cc(F)c2)NC(=O)[C@@H]2C[C@@H](O)CN2)ccc1F` [Example 178, (2S,4R)—N—((S)-1-(3-(3-carbamoyl-4-fluorophenyl)pyridin-2-yl)-2-(3,5-difluorophenyl)ethyl)-4-hydroxypyrrolidine-2-carboxamide] yielded an inhibition at 2 µM (HIV-IIIb) of 0% and a CC50 at 5 days (in vitro) greater than 53000 nM.
